Test results from PubChem BioAssay AID256 (DTP/NCI, 2004).
“And” between values parts separate entries of the source, which are not always exact repeats. Equal values may be shown once. Inconclusive results and toxic doses are left out. The calls were made as follows: active = survival T/C of 150% or more; inactive = T/C below 125% in these data.

System: CD2F1 mice, L1210 leukemia ip, survival T/C
Test: NCI In Vivo Anticancer Drug Screen. Data for tumor model L1210 Leukemia (intraperitoneal) in CD2F1 (CDF1) mice
Conditions: endpoint: mean survival time, higher = longer survival
How it was run: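 In this screen, transplantable tumors were grown in mice given either the compound or its vehicle. Results were expressed as the treated measurement relative to the control measurement.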

[1] = dose: 100.0 mg/kg/injection, schedule: Q01DX009 (ip), vehicle: saline
[2] = dose: 200.0 mg/kg/injection, schedule: Q01DX009 (ip), vehicle: saline
[3] = dose: 400.0 mg/kg/injection, schedule: Q01DX009 (ip), vehicle: saline
[4] = dose: 100.0 mg/kg/injection, schedule: Q01DX001 (ip), vehicle: saline with Tween-80
[5] = dose: 200.0 mg/kg/injection, schedule: Q01DX001 (ip), vehicle: saline with Tween-80
[6] = dose: 400.0 mg/kg/injection, schedule: Q01DX001 (ip), vehicle: saline with Tween-80
[7] = dose: 100.0 mg/kg/injection, schedule: Q01DX001 (ip), vehicle: saline
[8] = dose: 200.0 mg/kg/injection, schedule: Q01DX001 (ip), vehicle: saline
[9] = dose: 400.0 mg/kg/injection, schedule: Q01DX001 (ip), vehicle: saline
[10] = dose: 100.0 mg/kg/injection, schedule: Q04DX003 (ip), vehicle: saline with Tween-80
[11] = dose: 200.0 mg/kg/injection, schedule: Q04DX003 (ip), vehicle: saline with Tween-80
[12] = dose: 400.0 mg/kg/injection, schedule: Q04DX003 (ip), vehicle: saline with Tween-80
[13] = dose: 100.0 mg/kg/injection, schedule: Q04DX002 (ip), vehicle: saline with Tween-80
[14] = dose: 100.0 mg/kg/injection, schedule: Q01DX009 (ip), vehicle: saline with Tween-80
[15] = dose: 200.0 mg/kg/injection, schedule: Q01DX009 (ip), vehicle: saline with Tween-80
[16] = dose: 400.0 mg/kg/injection, schedule: Q01DX009 (ip), vehicle: saline with Tween-80

Measured: T/C

CCCCCCCCCCCC(=O)NC1CC(O[C@H]2C[C@](O)(C(=O)CO)Cc3c(O)c4c(c(O)c32)C(=O)c2c(OC)cccc2C4=O)OC(C)C1O (stereo not given in full)
inactive: dose: 1.5 mg/kg/injection, schedule: Q01DX009 (ip), vehicle: saline with Tween-80 108 % of control | dose: 1.5 mg/kg/injection, schedule: Q01DX009 (ip), vehicle: saline 104 % of control | dose: 3.0 mg/kg/injection, schedule: Q01DX009 (ip), vehicle: saline with Tween-80 98 % of control | dose: 3.0 mg/kg/injection, schedule: Q01DX009 (ip), vehicle: saline 113 % of control | dose: 6.0 mg/kg/injection, schedule: Q01DX009 (ip), vehicle: saline with Tween-80 105 % of control | dose: 6.0 mg/kg/injection, schedule: Q01DX009 (ip), vehicle: saline 113 % of control | dose: 6.25 mg/kg/injection, schedule: Q01DX009 (ip), vehicle: distilled water + Tween-80 105 % of control | dose: 12.0 mg/kg/injection, schedule: Q01DX009 (ip), vehicle: saline with Tween-80 107 % of control | dose: 12.5 mg/kg/injection, schedule: Q01DX009 (ip), vehicle: distilled water + Tween-80 105 % of control | dose: 24.0 mg/kg/injection, schedule: Q01DX009 (ip), vehicle: saline with Tween-80 112 % of control | dose: 24.0 mg/kg/injection, schedule: Q01DX009 (ip), vehicle: saline 116 % of control | dose: 25.0 mg/kg/injection, schedule: Q01DX009 (ip), vehicle: distilled water + Tween-80 112 % of control | dose: 48.0 mg/kg/injection, schedule: Q01DX009 (ip), vehicle: saline with Tween-80 97 % of control | dose: 50.0 mg/kg/injection, schedule: Q01DX009 (ip), vehicle: distilled water + Tween-80 116 % of control

O=CNC(Cc1ccc(O)cc1)C(=O)O (stereo not given)
inactive: [1] 97 % of control | [2] 94 % of control | [3] 89 % of control

CCCCCCCNC(=O)Nc1ccc(Cl)c(Cl)c1
inactive: [4] 103 % of control | [5] 100 % of control | [6] 103 % of control

COC(=O)C1C2C=CC(C2)C1C(=O)O (stereo not given)
inactive: [7] 100 % of control | [8] 98 % of control | [9] 103 % of control

O=C(Nc1cccc(C2=NCCN2)c1)c1ccc(C(=O)Nc2cccc(C3=NCCN3)c2)c(Cl)c1
inactive: dose: 1.0 mg/kg/injection, schedule: Q01DX009 (ip), vehicle: saline 95 % of control | dose: 2.0 mg/kg/injection, schedule: Q01DX009 (ip), vehicle: saline 92 % of control | dose: 4.0 mg/kg/injection, schedule: Q01DX009 (ip), vehicle: saline 98 % of control | dose: 8.0 mg/kg/injection, schedule: Q01DX009 (ip), vehicle: saline 113 % of control

CC(NC(=O)CNC(=O)CNC(=O)OCc1ccccc1)C(=O)OCc1ccccc1 (stereo not given)
inactive: [10] 97 % of control | [11] 99 % of control | [12] 101 % of control

CN(C)CCN(Cc1ccc(Cl)cc1)c1ccccn1
inactive: dose: 3.13 mg/kg/injection, schedule: Q01DX009 (ip), vehicle: saline with Tween-80 95 % of control | dose: 6.25 mg/kg/injection, schedule: Q01DX009 (ip), vehicle: saline with Tween-80 109 % of control

COc1ccc(SSc2ccc(OC)cc2)cc1
inactive: [7] 100 % of control | [8] 103 % of control | [9] 97 % of control

Nc1nc(=S)c2ncn(C3OC(CO)C4OC43)c2[nH]1 (stereo not given)
inactive: dose: 75.0 mg/kg/injection, schedule: Q01DX001 (ip), vehicle: saline 101 % of control | dose: 150.0 mg/kg/injection, schedule: Q01DX001 (ip), vehicle: saline 98 % of control | dose: 300.0 mg/kg/injection, schedule: Q01DX001 (ip), vehicle: saline 97 % of control

CCCCC1CCCCC1
inactive: [10] 95 % of control | [11] 100 % of control | [12] 90 % of control

Cc1cccc(OP(N)(=O)Oc2cccc(C)c2)c1
inactive: [13] 96 % of control | dose: 200.0 mg/kg/injection, schedule: Q04DX002 (ip), vehicle: saline with Tween-80 96 % of control | dose: 400.0 mg/kg/injection, schedule: Q04DX002 (ip), vehicle: saline with Tween-80 96 % of control

Nc1nc[nH]c(=O)c1N
inactive: [4] 107 % of control | [5] 107 % of control | [6] 102 % of control

COC(=O)C12CCC(C)(C)CC1C1=CCC3C4(C)CCC(OC(C)=O)CC4CCC3(C)C1(C)CC2 (stereo not given)
inactive: [4] 93 % of control | [14] 100 % of control | [5] 92 % of control | [15] 100 % of control | [6] 97 % of control | [16] 109 % of control

Cc1cc2cc3n(c2nn1)N=C(Cl)CC3
inactive: dose: 61.87 mg/kg/injection, schedule: Q04DX002 (ip), vehicle: Klucel (hydroxypropylcellulose) (HPC) 103 % of control | dose: 100.0 mg/kg/injection, schedule: Q04DX002 (ip), vehicle: Klucel (hydroxypropylcellulose) (HPC) 101 % of control | dose: 123.75 mg/kg/injection, schedule: Q04DX002 (ip), vehicle: Klucel (hydroxypropylcellulose) (HPC) 105 % of control | dose: 200.0 mg/kg/injection, schedule: Q04DX002 (ip), vehicle: Klucel (hydroxypropylcellulose) (HPC) 103 % of control | dose: 247.5 mg/kg/injection, schedule: Q04DX002 (ip), vehicle: Klucel (hydroxypropylcellulose) (HPC) 109 % of control

CCN(CC)CCC(O)c1ccc2c3ccccc3n(C)c2c1 (stereo not given)
inactive: [13] 109 % of control

CC(=O)Cc1nc(N)nc(Nc2ccc(Cl)c(Cl)c2)n1
inactive: [1] 96 % of control | [2] 97 % of control | [3] 111 % of control

O=C(Nc1ccc(Br)c2c(NC(=O)c3ccccc3)ccc(Br)c12)c1ccccc1
inactive: [14] 88 % of control and 93 % of control | [15] 97 % of control | [16] 93 % of control
